Reference: the NIST ThermoML archive (doi:10.1016/j.jct.2009.11.004)
± gives the expanded uncertainty stated by the source.

Tests used:
[1] = 101.33 kPa, Liquid; for viscosity: Concentric cylinders viscometry; for mass density: Vibrating tube method
[2] = refractive index (Na D-line) (dimensionless); conditions: 101.33 kPa, Liquid, Standard Abbe refractometry

`CCCCCC[n+]1ccn(C)c1.O=S(=O)([N-]S(=O)(=O)C(F)(F)F)C(F)(F)F` showed a viscosity ([1]; 298.15 K) of 68.54 ± 1.6 mPa·s, a mass density ([1]; 298.15 K) of 1370.8 ± 1.8 kg/m3 and a refractive index ([2]; 298.15 K) of 1.4318 ± 0.00051.

For `CCCC[n+]1ccccc1.O=S(=O)([N-]S(=O)(=O)C(F)(F)F)C(F)(F)F` [1-butylpyridinium bis[(trifluoromethyl)sulfonyl]imide], the viscosity ([1]; 293.15 K) was 76.16 ± 1.8 mPa·s, the mass density ([1]; 293.15 K) was 1452.5 ± 2 kg/m3 and the viscosity ([1]; 298.15 K) was 60.41 ± 1.4 mPa·s. It also gave a mass density ([1]; 298.15 K) of 1447.6 ± 2 kg/m3, a viscosity ([1]; 303.15 K) of 48.55 ± 1.1 mPa·s and a mass density ([1]; 303.15 K) of 1442.9 ± 2 kg/m3. For the same compound, the viscosity ([1]; 308.15 K) was 39.65 ± 0.9 mPa·s, the mass density ([1]; 308.15 K) was 1438.3 ± 2 kg/m3 and the viscosity ([1]; 313.15 K) was 32.83 ± 0.74 mPa·s. The mass density ([1]; 313.15 K) was 1433.6 ± 2 kg/m3, the viscosity ([1]; 318.15 K) was 27.56 ± 0.62 mPa·s and the mass density ([1]; 318.15 K) was 1429 ± 2 kg/m3. It also gave a viscosity ([1]; 323.15 K) of 23.4 ± 0.53 mPa·s, a mass density ([1]; 323.15 K) of 1424.3 ± 2 kg/m3 and a viscosity ([1]; 328.15 K) of 20.08 ± 0.45 mPa·s. The mass density ([1]; 328.15 K) was 1419.7 ± 1.9 kg/m3, the viscosity ([1]; 333.15 K) was 17.4 ± 0.39 mPa·s and the mass density ([1]; 333.15 K) was 1415.1 ± 1.9 kg/m3. It also gave a viscosity ([1]; 338.15 K) of 15.2 ± 0.34 mPa·s, a mass density ([1]; 338.15 K) of 1410.5 ± 1.9 kg/m3 and a viscosity ([1]; 343.15 K) of 13.39 ± 0.3 mPa·s. The mass density ([1]; 343.15 K) was 1406 ± 1.9 kg/m3, the viscosity ([1]; 348.15 K) was 11.87 ± 0.27 mPa·s and the mass density ([1]; 348.15 K) was 1401.5 ± 1.9 kg/m3. For the same compound, the viscosity ([1]; 353.15 K) was 10.59 ± 0.24 mPa·s, the mass density ([1]; 353.15 K) was 1397 ± 1.9 kg/m3 and the refractive index ([2]; 293.15 K) was 1.44537 ± 0.0006. The refractive index ([2]; 298.15 K) was 1.44379 ± 0.0006, the refractive index ([2]; 303.15 K) was 1.44211 ± 0.0006 and the refractive index ([2]; 308.15 K) was 1.44057 ± 0.00059. The refractive index ([2]; 313.15 K) was 1.43911 ± 0.00058, the refractive index ([2]; 318.15 K) was 1.43769 ± 0.00058 and the refractive index ([2]; 323.15 K) was 1.43631 ± 0.00057. It also gave a refractive index ([2]; 328.15 K) of 1.43496 ± 0.00057 and a refractive index ([2]; 333.15 K) of 1.43359 ± 0.00058.

Work on `CCCCCCCCCC[n+]1ccccc1.O=S(=O)([N-]S(=O)(=O)C(F)(F)F)C(F)(F)F` [1-decylpyridinium bis(trifluoromethylsulfonyl)imide] yielded a viscosity ([1]; 293.15 K) of 201.44 ± 5.7 mPa·s, a mass density ([1]; 293.15 K) of 1287.8 ± 1.7 kg/m3 and a viscosity ([1]; 298.15 K) of 151.93 ± 4 mPa·s. It also gave a mass density ([1]; 298.15 K) of 1283.5 ± 1.7 kg/m3, a viscosity ([1]; 303.15 K) of 116.39 ± 2.9 mPa·s and a mass density ([1]; 303.15 K) of 1279.2 ± 1.7 kg/m3. The viscosity ([1]; 308.15 K) was 90.82 ± 2.1 mPa·s, the mass density ([1]; 308.15 K) was 1275.1 ± 1.7 kg/m3 and the viscosity ([1]; 313.15 K) was 72.07 ± 1.6 mPa·s. It also gave a mass density ([1]; 313.15 K) of 1270.9 ± 1.7 kg/m3, a viscosity ([1]; 318.15 K) of 58.06 ± 1.3 mPa·s and a mass density ([1]; 318.15 K) of 1266.8 ± 1.6 kg/m3. It also gave a viscosity ([1]; 323.15 K) of 47.46 ± 1.1 mPa·s, a mass density ([1]; 323.15 K) of 1262.6 ± 1.6 kg/m3 and a viscosity ([1]; 328.15 K) of 39.29 ± 0.89 mPa·s. It also gave a mass density ([1]; 328.15 K) of 1258.5 ± 1.6 kg/m3, a viscosity ([1]; 333.15 K) of 32.91 ± 0.74 mPa·s and a mass density ([1]; 333.15 K) of 1254.3 ± 1.6 kg/m3. The viscosity ([1]; 338.15 K) was 27.86 ± 0.63 mPa·s, the mass density ([1]; 338.15 K) was 1250.2 ± 1.6 kg/m3 and the viscosity ([1]; 343.15 K) was 23.81 ± 0.54 mPa·s. It also gave a mass density ([1]; 343.15 K) of 1246.1 ± 1.6 kg/m3, a viscosity ([1]; 348.15 K) of 20.54 ± 0.46 mPa·s and a mass density ([1]; 348.15 K) of 1242 ± 1.6 kg/m3. The viscosity ([1]; 353.15 K) was 17.85 ± 0.4 mPa·s, the mass density ([1]; 353.15 K) was 1237.9 ± 1.6 kg/m3 and the refractive index ([2]; 293.15 K) was 1.45007 ± 0.00059. The refractive index ([2]; 298.15 K) was 1.44859 ± 0.00059, the refractive index ([2]; 303.15 K) was 1.44703 ± 0.00059 and the refractive index ([2]; 308.15 K) was 1.44546 ± 0.00059. It also gave a refractive index ([2]; 313.15 K) of 1.44391 ± 0.00059, a refractive index ([2]; 318.15 K) of 1.44239 ± 0.00059 and a refractive index ([2]; 323.15 K) of 1.44091 ± 0.00059. It also gave a refractive index ([2]; 328.15 K) of 1.43943 ± 0.00059 and a refractive index ([2]; 333.15 K) of 1.43796 ± 0.00059.

Work on `CCCCCCCCCCCC[n+]1ccccc1.O=S(=O)([N-]S(=O)(=O)C(F)(F)F)C(F)(F)F` [1-dodecylpyridinium bis(trifluoromethylsulfonyl)imide] yielded a viscosity ([1]; 293.15 K) of 269.72 ± 8.3 mPa·s, a mass density ([1]; 293.15 K) of 1253.1 ± 1.6 kg/m3 and a viscosity ([1]; 298.15 K) of 200.45 ± 5.7 mPa·s. It also gave a mass density ([1]; 298.15 K) of 1248.8 ± 1.6 kg/m3, a viscosity ([1]; 303.15 K) of 151.42 ± 4 mPa·s and a mass density ([1]; 303.15 K) of 1244.6 ± 1.6 kg/m3. It also gave a viscosity ([1]; 308.15 K) of 116.63 ± 2.9 mPa·s, a mass density ([1]; 308.15 K) of 1240.5 ± 1.6 kg/m3 and a viscosity ([1]; 313.15 K) of 91.45 ± 2.2 mPa·s. For the same compound, the mass density ([1]; 313.15 K) was 1236.4 ± 1.6 kg/m3, the viscosity ([1]; 318.15 K) was 72.83 ± 1.7 mPa·s and the mass density ([1]; 318.15 K) was 1232.3 ± 1.6 kg/m3. It also gave a viscosity ([1]; 323.15 K) of 58.88 ± 1.3 mPa·s, a mass density ([1]; 323.15 K) of 1228.2 ± 1.6 kg/m3 and a viscosity ([1]; 328.15 K) of 48.25 ± 1.1 mPa·s. For the same compound, the mass density ([1]; 328.15 K) was 1224.1 ± 1.6 kg/m3, the viscosity ([1]; 333.15 K) was 40.02 ± 0.9 mPa·s and the mass density ([1]; 333.15 K) was 1220.1 ± 1.6 kg/m3. It also gave a viscosity ([1]; 338.15 K) of 33.59 ± 0.76 mPa·s, a mass density ([1]; 338.15 K) of 1216 ± 1.6 kg/m3 and a viscosity ([1]; 343.15 K) of 28.47 ± 0.64 mPa·s. The mass density ([1]; 343.15 K) was 1212 ± 1.6 kg/m3, the viscosity ([1]; 348.15 K) was 24.36 ± 0.55 mPa·s and the mass density ([1]; 348.15 K) was 1208 ± 1.5 kg/m3. The viscosity ([1]; 353.15 K) was 21.03 ± 0.48 mPa·s, the mass density ([1]; 353.15 K) was 1204 ± 1.5 kg/m3 and the refractive index ([2]; 293.15 K) was 1.45131 ± 0.0006. The refractive index ([2]; 298.15 K) was 1.44969 ± 0.00059, the refractive index ([2]; 303.15 K) was 1.44818 ± 0.00059 and the refractive index ([2]; 308.15 K) was 1.44668 ± 0.00059. It also gave a refractive index ([2]; 313.15 K) of 1.44524 ± 0.00058, a refractive index ([2]; 318.15 K) of 1.44379 ± 0.00058 and a refractive index ([2]; 323.15 K) of 1.44235 ± 0.00058. The refractive index ([2]; 328.15 K) was 1.4409 ± 0.00058 and the refractive index ([2]; 333.15 K) was 1.43946 ± 0.00058.

Work on `CCCCCCCC[n+]1ccccc1.O=S(=O)([N-]S(=O)(=O)C(F)(F)F)C(F)(F)F` [1-octylpyridinium bis((trifluoromethyl)sulfonyl)amide] yielded a viscosity ([1]; 293.15 K) of 149.53 ± 3.9 mPa·s, a mass density ([1]; 293.15 K) of 1331.3 ± 1.8 kg/m3 and a viscosity ([1]; 298.15 K) of 114.34 ± 2.8 mPa·s. It also gave a mass density ([1]; 298.15 K) of 1326.8 ± 1.8 kg/m3, a viscosity ([1]; 303.15 K) of 88.74 ± 2.1 mPa·s and a mass density ([1]; 303.15 K) of 1322.5 ± 1.7 kg/m3. The viscosity ([1]; 308.15 K) was 70.13 ± 1.6 mPa·s, the mass density ([1]; 308.15 K) was 1318.2 ± 1.7 kg/m3 and the viscosity ([1]; 313.15 K) was 56.33 ± 1.3 mPa·s. The mass density ([1]; 313.15 K) was 1313.9 ± 1.7 kg/m3, the viscosity ([1]; 318.15 K) was 45.9 ± 1 mPa·s and the mass density ([1]; 318.15 K) was 1309.6 ± 1.7 kg/m3. For the same compound, the viscosity ([1]; 323.15 K) was 37.91 ± 0.86 mPa·s, the mass density ([1]; 323.15 K) was 1305.3 ± 1.7 kg/m3 and the viscosity ([1]; 328.15 K) was 31.7 ± 0.72 mPa·s. For the same compound, the mass density ([1]; 328.15 K) was 1301.1 ± 1.7 kg/m3, the viscosity ([1]; 333.15 K) was 26.8 ± 0.61 mPa·s and the mass density ([1]; 333.15 K) was 1296.8 ± 1.7 kg/m3. For the same compound, the viscosity ([1]; 338.15 K) was 22.89 ± 0.52 mPa·s, the mass density ([1]; 338.15 K) was 1292.6 ± 1.7 kg/m3 and the viscosity ([1]; 343.15 K) was 19.73 ± 0.45 mPa·s. The mass density ([1]; 343.15 K) was 1288.3 ± 1.7 kg/m3, the viscosity ([1]; 348.15 K) was 17.15 ± 0.39 mPa·s and the mass density ([1]; 348.15 K) was 1284.1 ± 1.7 kg/m3. The viscosity ([1]; 353.15 K) was 15.02 ± 0.34 mPa·s, the mass density ([1]; 353.15 K) was 1279.9 ± 1.7 kg/m3 and the refractive index ([2]; 293.15 K) was 1.4487 ± 0.00059. For the same compound, the refractive index ([2]; 298.15 K) was 1.44723 ± 0.00059, the refractive index ([2]; 303.15 K) was 1.44568 ± 0.00059 and the refractive index ([2]; 308.15 K) was 1.44413 ± 0.00059. The refractive index ([2]; 313.15 K) was 1.44262 ± 0.00059, the refractive index ([2]; 318.15 K) was 1.44115 ± 0.00058 and the refractive index ([2]; 323.15 K) was 1.43972 ± 0.00058. For the same compound, the refractive index ([2]; 328.15 K) was 1.43827 ± 0.00058 and the refractive index ([2]; 333.15 K) was 1.43681 ± 0.00058.
